# Laboratory results reported in patent US8722670B2, “Selective NR2B antagonists” (Bristol-Myers Squibb Company, priority 2011, dated 2014).
# Biological target: T1, hNR2B (Homo sapiens, UniProt Q05586+Q13224)
# T1 construct: expressed in transfected cells; host or cells: Xenopus laevis oocytes, cRNA-injected
# Test: Electrophysiology NMDA receptor experiments: two electrode voltage-clamp in Xenopus laevis oocytes, hNR2B IC50
# Assay type: cell-based
# Details: hNR2B activity class, 50 μM glutamate, 30 μM glycine, read-out: Activity
# Protocol: Stage V and VI oocytes were surgically removed from the ovaries of large, well-fed and healthy Xenopus laevis anesthetized with 3-amino-benzoic acid ethyl ester (3 gm/l). […] Oocytes were then washed in the same solution supplemented with 1.8 mM CaCl2 and maintained in Barth's solution comprised of (in mM): 88 NaCl, 1 KCl, 2.4 NaHCO3, 10 HEPES, 0.82 MgSO4, 0.33 Ca(NO3)2, and 0.91 CaCl2 and supplemented with 100 μg/ml gentamycin, 10 μg/ml streptomycin, and 10 μg/ml penicillin.
# Two electrode voltage-clamp recordings were made 2-7 days post-injection. Oocytes were placed in a dual-track plexiglass recording chamber with a single perfusion line that splits in a Y-configuration to perfuse two oocytes. Dual recordings were made at room temperature (23° C.) using two Warner OC725B two-electrode voltage clamp amplifiers, arranged as recommended by the manufacturer. Glass microelectrodes (1-10 Megaohms) were filled with 300 mM KCl (voltage electrode) or 3 M KCl (current electrode). The bath clamps communicated across silver chloride wires placed into each side of the recording chamber, both of which were assumed to be at a reference potential of 0 mV. Oocytes were perfused with a solution comprised of (in mM) 90 NaCl, 1 KCl, 10 HEPES, 10 EDTA and 0.5 BaCl2; pH 7.4, adjusted by addition of NaOH. Oocytes were recorded under voltage clamp at −40 mV. Final concentrations for glutamate and glycine were 50 μM and 30 μM, respectively. […] Dose response curves consisting of four to eight concentrations were obtained in this manner. The baseline leak current at −40 mV was measured before and after recording, and the full recording linearly corrected for any change in leak current. The level of inhibition by applied experimental compounds was expressed as a percent of the initial glutamate response, and averaged together across oocytes from multiple experiments.
# For NMDA receptor subtype selectivity experiments human GluN1/GluN2A, GluN1/GluN2C, and GluN1/GluN2D cRNAs were expressed in Xenopus laevis as described above. Here, 10 μM concentrations of the antagonist was perfused with 50 μM glutamate and 30 μM glycine onto the oocyte for two min and the remaining current in the presence of the antagonist was compared to the maximal current obtained with 50 μM glutamate and 30 μM glycine alone (defined as 100%). When IC50 determinations were made against other NMDA receptor subtypes the protocol as described above was followed.
# T1 sequence (Q13224 27-1484, other chains not shown): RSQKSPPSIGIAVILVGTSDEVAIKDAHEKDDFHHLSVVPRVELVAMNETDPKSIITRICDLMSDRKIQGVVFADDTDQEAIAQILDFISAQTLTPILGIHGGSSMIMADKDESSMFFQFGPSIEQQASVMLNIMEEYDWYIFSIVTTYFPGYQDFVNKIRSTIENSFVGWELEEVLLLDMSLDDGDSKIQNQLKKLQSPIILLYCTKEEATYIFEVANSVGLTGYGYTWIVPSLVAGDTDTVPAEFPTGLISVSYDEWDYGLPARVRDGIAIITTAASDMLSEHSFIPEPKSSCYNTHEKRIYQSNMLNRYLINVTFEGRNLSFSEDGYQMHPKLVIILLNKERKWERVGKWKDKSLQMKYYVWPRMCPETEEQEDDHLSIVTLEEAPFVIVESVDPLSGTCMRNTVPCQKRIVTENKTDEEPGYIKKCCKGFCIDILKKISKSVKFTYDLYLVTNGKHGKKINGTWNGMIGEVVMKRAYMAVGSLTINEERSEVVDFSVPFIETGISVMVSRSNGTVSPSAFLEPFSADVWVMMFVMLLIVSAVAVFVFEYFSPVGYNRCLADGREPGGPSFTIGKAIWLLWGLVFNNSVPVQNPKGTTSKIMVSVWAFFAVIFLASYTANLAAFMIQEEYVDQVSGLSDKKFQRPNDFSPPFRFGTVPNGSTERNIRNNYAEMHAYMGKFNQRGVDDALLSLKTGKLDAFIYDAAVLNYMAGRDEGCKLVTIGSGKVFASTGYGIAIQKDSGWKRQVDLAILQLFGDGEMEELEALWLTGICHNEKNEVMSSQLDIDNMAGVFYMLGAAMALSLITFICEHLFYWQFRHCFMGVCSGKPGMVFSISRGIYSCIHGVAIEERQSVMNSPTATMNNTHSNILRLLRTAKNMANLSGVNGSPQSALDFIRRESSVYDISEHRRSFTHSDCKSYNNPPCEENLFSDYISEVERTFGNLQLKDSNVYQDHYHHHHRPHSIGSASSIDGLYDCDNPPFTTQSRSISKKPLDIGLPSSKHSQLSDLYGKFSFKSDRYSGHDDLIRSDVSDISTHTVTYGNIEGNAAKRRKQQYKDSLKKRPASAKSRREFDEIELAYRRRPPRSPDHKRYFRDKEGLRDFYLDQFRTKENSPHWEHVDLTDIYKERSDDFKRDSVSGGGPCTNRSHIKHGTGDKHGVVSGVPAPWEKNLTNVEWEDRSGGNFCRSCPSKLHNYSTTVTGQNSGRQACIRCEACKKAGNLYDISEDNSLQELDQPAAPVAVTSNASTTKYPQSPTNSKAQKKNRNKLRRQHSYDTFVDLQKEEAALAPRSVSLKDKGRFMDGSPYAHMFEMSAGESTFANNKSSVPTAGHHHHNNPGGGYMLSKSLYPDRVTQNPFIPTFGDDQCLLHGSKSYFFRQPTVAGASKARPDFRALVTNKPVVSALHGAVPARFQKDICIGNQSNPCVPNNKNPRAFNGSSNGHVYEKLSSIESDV
row,Compound,IC50
1,CC1(C)Cc2cc(OCc3nnc(Nc4ccc(Cl)c(Cl)c4)o3)ccc2NC1=O [Example 80],1000 to 10000 nM
2,CC1(C)Cc2cc(OCc3nnc(Nc4ccc(Cl)c(F)c4)o3)ccc2NC1=O [Example 83],1000 to 10000 nM
3,CC1(C)Cc2cc(OCc3nnc(NCc4ccc(Cl)c(Cl)c4)o3)ccc2NC1=O [Example 84],> 10000 nM
4,O=c1ccc2cc(OCc3nnc(NCc4ccc5c(c4)OCO5)o3)ccc2[nH]1 [Example 85],1000 to 10000 nM
5,Cc1cc(CNc2nnc(COc3ccc4[nH]c(=O)ccc4c3)o2)ccc1F [Example 86],201 to 1000 nM
6,O=c1ccc2cc(OCc3nnc(Nc4ccc(OC(F)F)c(Cl)c4)o3)ccc2[nH]1 [Example 87],< 200 nM
7,O=c1ccc2cc(OCc3nnc(Nc4ccc(Cl)c(OC(F)F)c4)o3)ccc2[nH]1 [Example 88],< 200 nM
8,O=c1ccc2cc(OCc3nnc(Nc4cccc(Oc5ccccc5)c4)o3)ccc2[nH]1 [Example 89],201 to 1000 nM
9,Cc1cc(Nc2nnc(COc3ccc4[nH]c(=O)ccc4c3)o2)ccc1F [Example 90],201 to 1000 nM
10,O=c1ccc2cc(OCc3nnc(Nc4ccc(Oc5ccccc5)cc4)o3)ccc2[nH]1 [Example 91],1000 to 10000 nM
11,Cc1ccc(Nc2nnc(COc3ccc4[nH]c(=O)ccc4c3)o2)cc1Cl [Example 92],< 200 nM
12,Cc1cccc(CNc2nnc(COc3ccc4[nH]c(=O)ccc4c3)o2)c1 [Example 94],201 to 1000 nM
13,O=c1ccc2cc(OCc3nnc(Nc4ccc(F)c(Cl)c4)o3)ccc2[nH]1 [Example 96],201 to 1000 nM
14,O=c1ccc2cc(OCc3nnc(Nc4ccc(F)c(C(F)F)c4)o3)ccc2[nH]1 [Example 99],201 to 1000 nM
15,O=c1ccc2cc(OCc3nnc(NCc4ccccc4F)o3)ccc2[nH]1 [Example 100],1000 to 10000 nM
16,Cc1ccc(Nc2nnc(COc3ccc4[nH]c(=O)ccc4c3)o2)cc1F [Example 102],< 200 nM
17,COc1ccc(Nc2nnc(COc3ccc4[nH]c(=O)ccc4c3)o2)cc1F [Example 103],201 to 1000 nM
18,CC(Oc1ccc2[nH]c(=O)ccc2c1)c1nnc(Nc2ccc(Cl)c(Cl)c2)o1 (centres unmarked) [Example 106],< 200 nM
19,CC(Oc1ccc2[nH]c(=O)ccc2c1)c1nnc(Nc2ccc(OC(F)F)c(Cl)c2)o1 (centres unmarked) [Example 108],< 200 nM
20,O=C1Nc2ccc(OCc3nnc(Nc4ccc(Cl)c(Cl)c4)o3)cc2CO1 [Example 111],< 200 nM
21,O=c1[nH]c2ccc(OCc3nnc(NCc4ccc(Cl)c(Cl)c4)o3)cc2[nH]1 [Example 112],< 200 nM
22,O=c1[nH]c2ccc(OCc3nnc(Nc4ccc(Cl)c(Cl)c4)o3)cc2[nH]1 [Example 113],< 200 nM
23,Oc1ccc(OCc2nnc(NCc3ccc(Cl)c(Cl)c3)o2)cc1 [Example 114],< 200 nM
24,Oc1ccc(OCc2nnc(Nc3ccc(Cl)c(Cl)c3)o2)cc1 [Example 115],< 200 nM
25,Oc1cccc(OCc2nnc(Nc3ccc(Cl)c(Cl)c3)o2)c1 [Example 116],1000 to 10000 nM

row,Compound,IC50
1,Oc1ccc(OCc2nnc(NCc3ccc(Cl)c(Cl)c3)o2)nn1 [Example 117],> 10000 nM
2,Oc1ccc(OCc2nnc(Nc3ccc(Cl)c(Cl)c3)o2)nn1 [Example 118],1000 to 10000 nM
3,Oc1c(F)cc(OCc2nnc(Nc3ccc(Cl)c(Cl)c3)o2)cc1F [Example 119],201 to 1000 nM
4,Clc1ccc(CNc2nnc(COc3ccc4c(c3)CCCN4)o2)cc1Cl [Example 120],> 10000 nM
5,O=c1cnc2cc(OCc3nnc(Nc4ccc(Cl)c(Cl)c4)o3)ccc2[nH]1 [Example 123],1000 to 10000 nM
6,O=c1cnc2cc(OCc3nnc(Nc4ccc(C(F)(F)F)cc4)o3)ccc2[nH]1 [Example 124],1000 to 10000 nM
7,O=C1COc2cc(OCc3nnc(Nc4ccc(Cl)c(Cl)c4)o3)ccc2N1 [Example 125],201 to 1000 nM
8,O=C1COc2cc(OCc3nnc(Nc4ccc(OC(F)(F)F)cc4)o3)ccc2N1 [Example 126],201 to 1000 nM
9,O=C1COc2cc(OCc3nnc(NCc4ccc(Cl)c(Cl)c4)o3)ccc2N1 [Example 127],201 to 1000 nM
10,O=C1CCc2cc(CCc3nnc(Nc4ccc(Cl)cc4)o3)ccc2N1 [Example 129],< 200 nM
11,O=C1CCc2cc(CCc3nnc(Nc4ccc(C(F)(F)F)cc4)o3)ccc2N1 [Example 130],< 200 nM
12,O=C1CCc2cc(CCc3nnc(Nc4ccc(Cl)c(Cl)c4)o3)ccc2N1 [Example 131],< 200 nM
13,O=C1CCc2cc(CCc3nnc(NCc4ccc(Cl)c(Cl)c4)o3)ccc2N1 [Example 132],< 200 nM
14,O=C1CCc2cc(CCc3nnc(Nc4ccc(OC(F)F)cc4)o3)ccc2N1 [Example 133],< 200 nM
15,O=C1CCc2cc(CCc3nnc(Nc4ccc(OC(F)(F)F)cc4)o3)ccc2N1 [Example 134],< 200 nM
16,O=C1CCc2cc(CCc3nnc(Nc4ccc(Cl)c(F)c4)o3)ccc2N1 [Example 135],< 200 nM
17,O=c1ccc2cc(CCc3nnc(Nc4ccc(Cl)c(Cl)c4)o3)ccc2[nH]1 [Example 136],< 200 nM
18,O=c1ccc2cc(CCc3nnc(Nc4ccc(OC(F)(F)F)c(Cl)c4)o3)ccc2[nH]1 [Example 137],< 200 nM
19,O=c1ccc2cc(CCc3nnc(Nc4ccc(C(F)(F)F)cc4)o3)ccc2[nH]1 [Example 138],< 200 nM
20,FC(F)(F)c1n[nH]c2ccc(CCc3nnc(Nc4ccc(Cl)c(Cl)c4)o3)cc12 [Example 143],> 10000 nM
21,FC(F)(F)c1ccc(Nc2nnc(CCc3ccc4[nH]ncc4c3)o2)cc1 [Example 144],< 200 nM
22,Clc1ccc(Nc2nnc(CCCc3ccc4[nH]ncc4c3)o2)cc1Cl [Example 145],1000 to 10000 nM
23,Oc1cccc(Cc2nnc(Nc3ccc(Cl)c(Cl)c3)o2)c1 [Example 147],1000 to 10000 nM
24,Oc1cccc(Cc2nnc(NCc3ccc(Cl)c(Cl)c3)o2)c1 [Example 148],> 10000 nM
25,Oc1ccc(Cc2nnc(Nc3ccc(Cl)c(Cl)c3)o2)cc1 [Example 149],1000 to 10000 nM

row,Compound,IC50
1,Oc1ccc(Cc2nnc(NCc3ccc(Cl)c(Cl)c3)o2)cc1 [Example 150],1000 to 10000 nM
2,Oc1ccc(CCc2nnc(Nc3ccc(Cl)c(Cl)c3)o2)cc1 [Example 151],< 200 nM
3,Oc1ccc(CCc2nnc(Nc3ccc(OC(F)(F)F)cc3)o2)cc1 [Example 153],< 200 nM
4,O=c1ccc2cc(C3CC3c3nnc(Nc4ccc(OC(F)F)c(Cl)c4)o3)ccc2[nH]1 (centres unmarked) [Example 155],< 200 nM
5,O=c1ccc2cc(OCc3nc(Nc4ccc(C(F)(F)F)c(F)c4)no3)ccc2[nH]1 [Example 157],> 10000 nM
6,O=c1ccc2cc(OCc3nc(Nc4ccc(F)cc4)no3)ccc2[nH]1 [Example 158],> 10000 nM
7,O=c1ccc2cc(OCc3nc(Nc4cccc(Cl)c4)no3)ccc2[nH]1 [Example 161],> 10000 nM
8,O=c1ccc2cc(OCc3nc(Nc4cc(Cl)cc(Cl)c4)no3)ccc2[nH]1 [Example 164],1000 to 10000 nM
9,Cc1ccc(Nc2noc(COc3ccc4[nH]c(=O)ccc4c3)n2)cc1 [Example 165],1000 to 10000 nM
10,COc1ccc(Nc2noc(COc3ccc4[nH]c(=O)ccc4c3)n2)cc1F [Example 166],< 200 nM
11,O=c1ccc2cc(OCc3nc(Nc4ccc(Cl)c(Cl)c4)no3)ccc2[nH]1 [Example 178],201 to 1000 nM
12,O=C1CCc2cc(OCc3nc(Nc4ccc(OC(F)(F)F)cc4)no3)ccc2N1 [Example 179],201 to 1000 nM
13,O=C1CCc2cc(OCc3nc(Nc4ccc(C(F)(F)F)cc4)no3)ccc2N1 [Example 180],1000 to 10000 nM
14,O=C1CCc2cc(OCc3nc(Nc4ccc(Cl)cc4)no3)ccc2N1 [Example 182],1000 to 10000 nM
15,O=c1ccc2cc(OCc3nc(Nc4ccc(Cl)cc4)no3)ccc2[nH]1 [Example 183],1000 to 10000 nM
16,Oc1ccc(OCc2nc(Nc3ccc(Cl)c(Cl)c3)no2)cc1 [Example 184],1000 to 10000 nM
17,Oc1ccc(OCc2nc(Nc3ccc(C(F)(F)F)cc3)no2)cc1 [Example 185],1000 to 10000 nM
18,O=C1CCc2cc(OCc3nc(Nc4ccc(OC(F)F)cc4)no3)ccc2N1 [Example 186],201 to 1000 nM
19,Clc1ccc(Nc2noc(COc3ccc4[nH]ncc4c3)n2)cc1Cl [Example 187],> 10000 nM
20,FC(F)(F)c1ccc(Nc2noc(COc3ccc4[nH]ncc4c3)n2)cc1 [Example 188],> 10000 nM
21,Clc1ccc(CNc2noc(COc3ccc4[nH]ncc4c3)n2)cc1 [Example 189],1000 to 10000 nM
22,O=c1ccc2cc(OCc3nc(Nc4ccc(OC(F)F)c(Cl)c4)no3)ccc2[nH]1 [Example 191],< 200 nM
23,O=c1ccc2cc(OCc3nc(Nc4ccc(F)c(Cl)c4)no3)ccc2[nH]1 [Example 192],1000 to 10000 nM

# Same assay, conditions: voltage clamp -40 mV, 50 μM glutamate, 30 μM glycine, read-out: hNR2B IC50
row,Compound,IC50
1,"Oc1ccc(CCc2nnc(NCc3ccc(Cl)c(Cl)c3)o2)cc1 [Example 128, 4-(2-(5-(3,4-dichlorobenzylamino)-1,3,4-oxadiazol-2-yl)ethyl)phenol]",61 nM
2,FC(F)Oc1ccc(Nc2nnc(CCc3ccc4[nH]nc(C(F)(F)F)c4c3)o2)cc1Cl [Example 142],4680 nM
3,Fc1cc(Nc2nnc(CCCc3ccc4[nH]ncc4c3)o2)ccc1Cl [Example 146],230 nM
4,Oc1ccc(CCc2nnc(Nc3ccc(C(F)(F)F)cc3)o2)cc1 [Example 152],48 nM
5,"O=c1ccc2cc(C3CC3c3nnc(Nc4ccc(C(F)(F)F)cc4)o3)ccc2[nH]1 (centres unmarked) [Example 154, 6-(2-(5-((4-(trifluoromethyl)phenyl)amino)-1,3,4-oxadiazol-2-yl)cyclopropyl)quinolin-2(1H)-one]",9.5 nM
6,"O=C1CCc2cc(OCc3nc(Nc4ccc(Cl)c(Cl)c4)no3)ccc2N1 [Example 156, 6-((3-(3,4-dichlorophenylamino)-1,2,4-oxadiazol-5-yl)methoxy)-3,4-dihydroquinolin-2(1H)-one]",390 nM
7,COc1ccc(Nc2noc(COc3ccc4[nH]c(=O)ccc4c3)n2)cc1Cl [Example 167],300 nM
8,O=c1ccc2cc(OCc3nc(Nc4ccc(C(F)(F)F)cc4)no3)ccc2[nH]1 [Example 181],145 nM
9,O=c1ccc2cc(OCc3nc(Nc4ccc(OC(F)F)cc4)no3)ccc2[nH]1 [Example 190],168 nM
10,"O=C1CCc2cc(CCc3nc(Nc4ccc(Cl)c(Cl)c4)no3)ccc2N1 [Example 194, 6-(2-(3-(3,4-dichlorophenylamino)-1,2,4-oxadiazol-5-yl)ethyl)-3,4-dihydroquinolin-2(1H)-one]",> 10000 nM
